The values that follow come from patent US20030212116A1 (priority 1999, published 2003).

As usually defined, the melting point is the temperature, or range, at which the solid turns liquid. For the molecule `COC(=O)Cc1ccccc1N=C1N(C)CC(=O)N1C`, the melting point lay in the range of 57 to 59 °C.
